Series [1] addresses T1, prolyl-endopeptidase in rat cerebral cortex (Rattus norvegicus, UniProt O70196).
T1 sequence (O70196 1-710): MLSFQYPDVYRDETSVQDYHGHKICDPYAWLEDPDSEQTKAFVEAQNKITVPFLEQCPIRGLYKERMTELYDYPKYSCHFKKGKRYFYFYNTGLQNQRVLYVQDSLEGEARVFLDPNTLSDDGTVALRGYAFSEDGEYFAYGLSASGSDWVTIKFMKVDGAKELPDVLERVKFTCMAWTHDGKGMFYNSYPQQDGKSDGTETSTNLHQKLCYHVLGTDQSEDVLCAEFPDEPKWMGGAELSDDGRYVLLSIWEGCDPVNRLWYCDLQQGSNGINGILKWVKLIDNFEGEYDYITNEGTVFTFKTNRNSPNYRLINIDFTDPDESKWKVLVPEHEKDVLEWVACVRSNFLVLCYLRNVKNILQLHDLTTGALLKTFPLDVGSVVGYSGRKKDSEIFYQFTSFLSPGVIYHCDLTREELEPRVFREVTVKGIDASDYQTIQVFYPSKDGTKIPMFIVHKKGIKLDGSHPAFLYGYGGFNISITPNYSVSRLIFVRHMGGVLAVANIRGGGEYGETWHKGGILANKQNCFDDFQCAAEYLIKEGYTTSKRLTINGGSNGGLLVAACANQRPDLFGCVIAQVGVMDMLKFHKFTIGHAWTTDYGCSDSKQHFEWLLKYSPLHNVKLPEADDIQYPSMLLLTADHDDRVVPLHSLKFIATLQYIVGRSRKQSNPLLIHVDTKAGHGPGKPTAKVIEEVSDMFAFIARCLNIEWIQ
Briefly: In vivo inhibition of prolyl-endopeptidase in rat cerebral cortex after IP administration. The following applies: 1 mg/kg IP, 30 minutes before preparation of the tissue extract.

The next series deals with Prolyl-endopeptidase. Kind of series: biochemical.
The target in series [2] is T1, prolyl-endopeptidase in rat cerebral cortex. Briefly: Duration of action with respect to in vivo inhibition of prolyl-endopeptidase in rat cerebral cortex. To be noted: IP.
The target is the same in series [3]. Briefly: Oral bioavailability estimated from inhibiting effect after oral versus IP administration. The following applies: inhibiting effect (%) after oral divided by that after IP administration, 30 or 60 minutes. The series is classed as in vivo.
Method: The oral bioavailability index (OBI) was determined by dividing the inhibiting effect (%) measured after oral administration by that measured after IP administration.
Series [4] has the same target. Kind of series: In vitro inhibition of prolyl-endopeptidase in rat cerebral cortex extract (substrate TRH-pNitroaniline). The series is classed as biochemical. The following applies: 37° C.

Sequence of Prolyl-endopeptidase (P27028 21-705): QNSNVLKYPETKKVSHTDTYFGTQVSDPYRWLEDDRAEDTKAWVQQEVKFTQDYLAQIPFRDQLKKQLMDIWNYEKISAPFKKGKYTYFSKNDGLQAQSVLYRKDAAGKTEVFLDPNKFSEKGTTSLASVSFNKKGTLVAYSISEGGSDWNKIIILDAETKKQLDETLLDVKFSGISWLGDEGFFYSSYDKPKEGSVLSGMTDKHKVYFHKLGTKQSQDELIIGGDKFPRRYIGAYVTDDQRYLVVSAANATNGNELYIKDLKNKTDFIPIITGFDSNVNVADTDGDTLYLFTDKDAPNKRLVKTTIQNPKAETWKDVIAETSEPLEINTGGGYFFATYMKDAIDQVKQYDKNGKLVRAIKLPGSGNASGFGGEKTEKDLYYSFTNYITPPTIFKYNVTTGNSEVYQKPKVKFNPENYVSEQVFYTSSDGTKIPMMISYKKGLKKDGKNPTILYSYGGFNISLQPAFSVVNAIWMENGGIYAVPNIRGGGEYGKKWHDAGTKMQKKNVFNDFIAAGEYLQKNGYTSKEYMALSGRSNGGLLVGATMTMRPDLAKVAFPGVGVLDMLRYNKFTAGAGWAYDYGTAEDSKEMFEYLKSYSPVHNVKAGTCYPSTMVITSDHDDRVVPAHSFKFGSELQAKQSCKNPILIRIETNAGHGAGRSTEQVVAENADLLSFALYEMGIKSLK

In turn, `O=C([C@@H]1C[C@@H]2CCCC[C@@H]2N1C(=O)C1CC1Cc1ccccc1)N1CCCC1` (single isomer, unassigned) [Example 14] yielded an inhibition at 1 mg/kg in series [1] of 41%.
`O=C([C@@H]1C[C@@H]2CCCC[C@@H]2N1C(=O)[C@@H]1C[C@H]1c1ccc(F)cc1)N1CCCC1` [Example 1] yielded an IC50 against Prolyl-endopeptidase of 14 nM. Further, the “t1/2 (time for which the inhibiting effect is equal to 50 % of the maximum effect measured at 30 minutes)” value in series [2] (1 mg/kg) was found to be 7 h. This molecule gave an inhibition at 1 mg/kg in series [1] of 54%. In series [3] (1 mg/kg), the “OBI (oral bioavailability index)” value is recorded as 0.90.
At Prolyl-endopeptidase, `O=C([C@@H]1C2CCC(CC2)N1C(=O)[C@@H]1C[C@H]1c1ccc(F)cc1)N1CCCC1` [Example 2, (3S)-2-{(1R,2R)-[2-(4-Fluorophenyl)-1-cyclopropyl]carbonyl}-3-[(pyrrolidin-1-yl)carbonyl]-2-azabicyclo[2.2.2]octane] showed an IC50 of 40 nM. Besides, the “t1/2 (time for which the inhibiting effect is equal to 50 % of the maximum effect measured at 30 minutes)” value in series [2] (1 mg/kg) is 7 h. In series [1], this molecule came in with an inhibition at 1 mg/kg of 42%.
In the case of `O=C([C@@H]1C[C@@H]2CCCC[C@@H]2N1C(=O)[C@@H]1C[C@H]1c1cccs1)N1CCCC1` [Example 3, (2S,3aS,7aS)-1-{(1R,2R)-[2-(2-Thienyl)-1-cyclopropyl]carbonyl}-2-[(pyrrolidin-1-yl)carbonyl]perhydroindole], the IC50 on Prolyl-endopeptidase worked out at 14 nM; in series [4] it was 1.4 nM. 1 mg/kg produced 59% inhibition in series [1].
On to `O=C([C@@H]1C[C@@H]2CCCC[C@@H]2N1C(=O)[C@@H]1C[C@H]1c1cccc(C(F)(F)F)c1)N1CCCC1` [Example 5, (2S,3aS,7aS)-1-{(1R,2R)-[2-(3-Trifluoromethylphenyl)-1cyclopropyl]carbonyl}-2-[(pyrrolidin-1-yl)carbonyl]perhydroindole], for which the IC50 in series [4] was 1 nM. Further, testing at 1 mg/kg in series [1] gave an inhibition of 58%.
On Prolyl-endopeptidase, `O=C([C@@H]1C2CCC(CC2)N1C(=O)[C@@H]1C[C@H]1c1cccc(C(F)(F)F)c1)N1CCCC1` [Example 6, (3S)-2-{(1R,2R)-[2-(3-Trifluoromethylphenyl)-1-cyclopropyl]carbonyl}-3-[(pyrrolidin-1-yl)carbonyl]-2-azabicyclo[2.2.2]octane] yielded an IC50 of 3 nM. In series [1], this molecule came in with an inhibition at 1 mg/kg of 49%.
Regarding `O=C[C@@H]1CCCN1C(=O)CCC(=O)NCc1ccc(Cl)cc1` [ONO, (S)-1-[N-4-chlorobenzylsuccinamoyl] pyrrolidine-2-carbaldehyde, reference compound], in series [2] (30 mg/kg), the “t1/2 (time for which the inhibiting effect is equal to 50 % of the maximum effect measured at 30 minutes)” value came out at 1 h.
Take `O=C([C@@H]1CSCN1C(=O)CCCc1ccccc1)N1CCCC1` [Zeria, N-(4-phenylbutanoyl)-L-thiaprolylpyrrolidineimide, reference compound]: the “t1/2 (time for which the inhibiting effect is equal to 50 % of the maximum effect measured at 30 minutes)” value in series [2] (30 mg/kg) stood at 1 h. Also, the “OBI (oral bioavailability index)” value in series [3] (30 mg/kg) is reported as 0.30.

As a reminder, the inhibition is the percentage by which the read-out fell short of the control. For orientation: IC50 means the point on the concentration scale where inhibition reaches its midpoint. A low value points to greater potency in that assay.
